Reference: the CheMixHub viscosity set
Several values for one entry are separate records, joined by “and”; a condition that tells them apart may be missing. Identical values can stand only once.

Tests used:
[1] = xn = mol fraction of the nth substance listed

OCCOCCO
viscosity
Settings | 293.15 K | 298.1 K | 298.15 K | 308.15 K | 313.15 K
101 kPa | 38.82 mPa·s and 38.82 mPa·s and 38.82 mPa·s (2×) | 27.87 mPa·s | 27.15 mPa·s and 27.14 mPa·s | 17.26 mPa·s | 14.81 mPa·s
101.32 kPa | 33.6 mPa·s | – | – | – | 12.8 mPa·s
101.33 kPa | – | – | 26.81 mPa·s | – | –

CCc1cccc(CC)c1
102 kPa
Settings | viscosity [mPa·s]
293.15 K | 0.852
303.15 K | 0.751
313.15 K | 0.668
323.15 K | 0.598

CCCCCCCCCCCCO
Settings | viscosity [mPa·s]
303.15 K, 101.33 kPa | 12.95

CCCCCCCCN
viscosity
Settings | 303.15 K | 308.15 K | 313.15 K
101 kPa | 1.169 mPa·s and 1.169 mPa·s and 1.165 mPa·s | 0.9267 mPa·s and 0.9267 mPa·s | 0.9864 mPa·s
101.33 kPa | 1.165 mPa·s | – | 0.9864 mPa·s

[Br-].[Br-].[Br-].[Br-].[Sn+4]
101 kPa
Settings | viscosity
313.15 K | 1.97 mPa·s and 2.101 mPa·s
323.15 K | 1.78 mPa·s

CC(C)CCCC(C)CCCC(C)CCCC(C)C (stereo unspecified)
Settings | viscosity [mPa·s]
298.15 K, 101.33 kPa | 5.479

O=C(O)CCC(=O)O + CCCO
[1], 101 kPa
Settings | viscosity [mPa·s]
308.15 K, x1 = 0.0284 | 1.872
313.15 K, x1 = 0.0284 | 1.657
313.15 K, x1 = 0.03 | 1.657
313.15 K, x1 = 0.037 | 1.72
313.15 K, x1 = 0.043 | 1.777
313.15 K, x1 = 0.0435 | 1.888
313.15 K, x1 = 0.048 | 1.888
318.15 K, x1 = 0.0284 | 1.492
318.15 K, x1 = 0.0435 | 1.635
323.15 K, x1 = 0.0284 | 1.326
323.15 K, x1 = 0.0435 | 1.462

CCCCCCCCCCCCO + C=CC(=O)OCC
viscosity [mPa·s], [1], 101.3 kPa
Settings | x2 = 0.0932 | x2 = 0.2669 | x2 = 0.3351 | x2 = 0.4687 | x2 = 0.5769 | x2 = 0.7542 | x2 = 0.8231 | x2 = 0.8907 | x2 = 0.9643 | x2 = 0.9743
298.15 K | 11.28 | 6.404 | 5.497 | 3.183 | 2.253 | 1.192 | 0.963 | 0.74 | 0.584 | 0.565
308.15 K | 10.08 | 4.772 | 4.182 | 2.515 | 1.748 | 0.997 | 0.792 | 0.633 | 0.512 | 0.497

CCCC[N+](CCCC)(CCCC)CCCC.[Cl-] + CC(C)C[C@H](N)C(=O)O
Settings | viscosity [mPa·s]
[1], 313.15 K, 100 kPa, x1 = 0.9 | 943

CCCCCCCCCCCCCCCCCC(=O)OC + C1CCCCC1
viscosity [mPa·s], [1], 101 kPa
Settings | x1 = 0.05 | x1 = 0.1 | x1 = 0.15 | x1 = 0.2 | x1 = 0.25 | x1 = 0.3
298 K | 1.22 | 1.46 | 1.73 | 2.03 | 2.33 | –
303 K | 1.14 | 1.35 | 1.58 | 1.86 | 2.12 | 2.45
308 K | 1.06 | 1.25 | 1.46 | 1.71 | 1.95 | 2.2
313 K | 0.99 | 1.16 | 1.34 | 1.58 | 1.78 | 2.02
